In US10111437B2, “Substituted guanidines as fungicides” (Nippon Soda Co., Ltd., priority 2015, dated 2018):

N/C(=N\O)c1ccc(OCCCn2ccn(CCCOc3ccc(/C(N)=N/O)cc3)c2=NC(=O)C(F)(F)F)cc1 [compound 55, N-[1,3-bis[3-[4-[N′-hydroxycarbamimidoyl]phenoxy]propyl]-1,3-dihydro-2H-imidazol-2-ylidene]-2,2,2-trifluoroacetamide]
melting point: 187 to 201 °C
